According to ChEMBL document CHEMBL1201862, “PubChem BioAssay data set” (2004):
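Method: 48-hour compound exposure of cells in 96-well plates, five concentrations, linear interpolation of endpoints. Abbreviation: GI50, concentration required for 50% inhibition of growth.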 Active and inactive are the calls of the source. Rule as the data show it: active = GI50 up to about 1.1 µM and inactive = higher.

Tests used:
Test in all cases: DTP human tumour cell line panel, 48 h
DMS-114 = system: DMS-114
HOP-18 = system: HOP-18
KM-20L2 = system: KM-20L2
M19-MEL = system: M19-MEL
MDA-N = system: MDA-N
T47D = system: T47D
XF498 = system: XF498
LXFL 529 = system: LXFL 529
RXF 631 = system: RXF 631

Measured: GI50

OC(CBr)C(O)C(O)C(O)CBr (stereo unspecified)
inactive: DMS-114 42.4 µM | HOP-18 > 100 µM | KM-20L2 > 100 µM | M19-MEL > 100 µM | MDA-N > 45.9 µM | T47D > 100 µM | XF498 80.5 µM

CC(=O)NC1CC2Oc3ccc(C)cc3C(C)(O2)C1O (stereo unspecified)
inactive: DMS-114 > 100 µM | HOP-18 > 100 µM | M19-MEL > 100 µM | XF498 > 100 µM

O=C(NCCCOC(=O)CCCCCCCCC(=O)OCCCNC(=O)NC(=O)c1c[nH]c(=O)[nH]c1=O)NC(=O)c1c[nH]c(=O)[nH]c1=O
inactive: HOP-18 1.49 µM | KM-20L2 > 100 µM | LXFL 529 > 100 µM | M19-MEL > 100 µM | RXF 631 > 100 µM | XF498 > 100 µM

FC(F)(F)C1(Cl)C(Cl)(c2ccccc2)C1(Cl)c1ccccc1 (stereo unspecified)
inactive: DMS-114 15.6 µM | HOP-18 11.1 µM | KM-20L2 13.9 µM | LXFL 529 16.3 µM | M19-MEL 15.6 µM | XF498 15.7 µM

CCCCS(=O)(=O)Nc1ccc(Nc2c3ccccc3nc3ccccc23)c(OC)c1
inactive: HOP-18 7.52 µM | KM-20L2 3.14 µM | M19-MEL 4.61 µM | XF498 2.19 µM

O=S(OC12CC3CC(CC(C3)C1)C2)c1cc(Cl)cc(Cl)c1OCc1ccccc1 (stereo unspecified)
inactive: DMS-114 73.8 µM | LXFL 529 > 100 µM | M19-MEL > 100 µM | RXF 631 > 100 µM | XF498 > 100 µM

Cc1cccc(C)c1NC(=O)CCC(=O)NNC(=O)c1cc(O)c2ccccc2c1
inactive: DMS-114 21.8 µM | HOP-18 11.6 µM | KM-20L2 34.4 µM | LXFL 529 29.6 µM | M19-MEL 35.2 µM | XF498 50.6 µM

CCOC(=O)C(=C=C=C(c1ccccc1)c1ccccc1)C(=O)OCC
inactive: DMS-114 18.5 µM | KM-20L2 20.9 µM | LXFL 529 16.9 µM | M19-MEL 18.4 µM | RXF 631 24 µM | XF498 15.1 µM

CC(=O)CCC1(c2ccccc2)OC(=O)C(C#N)=C1c1ccccc1 (stereo unspecified)
inactive: DMS-114 > 100 µM | KM-20L2 > 100 µM | LXFL 529 59.4 µM | M19-MEL > 100 µM | RXF 631 > 100 µM | XF498 > 100 µM

O=C1/C(=N\O)c2ccccc2S1(=O)=O
inactive: DMS-114 > 100 µM | HOP-18 > 100 µM | KM-20L2 > 100 µM | LXFL 529 69.2 µM | M19-MEL > 100 µM

COC(=O)NNc1c([N+](=O)[O-])cnn(-c2ccccc2)c1=O
inactive: DMS-114 3.37 µM | HOP-18 2.82 µM | KM-20L2 3.37 µM | LXFL 529 1.73 µM | M19-MEL 1.87 µM | MDA-N 2.85 µM | RXF 631 2.08 µM | T47D 2.21 µM

Cc1cccc(C)c1NC(=O)CCc1nnc2s/c(=C\c3ccc(N(C)C)cc3)c(=O)n12
inactive: DMS-114 50.6 µM | KM-20L2 > 100 µM | LXFL 529 > 100 µM | RXF 631 > 100 µM | XF498 > 100 µM

CC1NCCc2c1[nH]c1cc(O)ccc21 (stereo unspecified)
inactive: DMS-114 > 100 µM | HOP-18 > 100 µM | KM-20L2 > 100 µM | LXFL 529 > 100 µM | M19-MEL > 100 µM | XF498 > 100 µM

Cn1nc2ccc3nccc(N(CCO)CCO)c3c2n1
inactive: HOP-18 > 100 µM | KM-20L2 > 100 µM | LXFL 529 > 100 µM | M19-MEL > 100 µM | XF498 > 100 µM

Cc1c(N(C)C)ccc2c(=O)c3cccc(CC(=O)O)c3oc12
inactive: DMS-114 > 100 µM | HOP-18 > 100 µM | KM-20L2 > 100 µM | M19-MEL > 100 µM | MDA-N > 100 µM | RXF 631 > 100 µM | T47D > 100 µM

Cc1cc(O)c2c(c1)C(=O)c1c(c(O)cc(O)c1-c1c(O)cc(O)c3c1C(=O)c1cc(C)cc(O)c1C3=O)C2=O [SKYRIN]
inactive: DMS-114 16.7 µM | HOP-18 10.4 µM | KM-20L2 16.3 µM | M19-MEL 17.1 µM | XF498 21.1 µM
